Laboratory results published in PubChem BioAssay AID1259407 (Chemical Carcinogenesis Research Information System (CCRIS), 2018).
Activity calls are given as the source filed them. No rule for the calls is given here.

System: CCRIS mutagenicity, Ames/micronucleus/aberration tests
Assay: CCRIS mutagenicity studies
[1] = Test System: AMES SALMONELLA TYPHIMURIUM, Strain/Indicator: TA98, Metabolic Activation: NONE, Method: STANDARD PLATE
[2] = Test System: AMES SALMONELLA TYPHIMURIUM, Strain/Indicator: TA100, Metabolic Activation: NONE, Method: STANDARD PLATE

Cc1ccc(N=NN(C)C)cc1
mutagenic call (Test System: AMES SALMONELLA TYPHIMURIUM, Strain/Indicator: TA92, Metabolic Activation: MOUSE, LIVER, S-9, POLYCHLORINATED BIPHENYLS, Method: PREINCUBATION): inactive; negative | mutagenic call (Test System: AMES SALMONELLA TYPHIMURIUM, Strain/Indicator: TA92, Metabolic Activation: MOUSE, LIVER, S-9, POLYCHLORINATED BIPHENYLS, Method: STANDARD PLATE): inactive; negative | mutagenic call (Test System: AMES SALMONELLA TYPHIMURIUM, Strain/Indicator: TA92, Metabolic Activation: NONE, Method: STANDARD PLATE): inactive; negative | mutagenic call (Test System: AMES SALMONELLA TYPHIMURIUM, Strain/Indicator: TA97, Metabolic Activation: MOUSE, LIVER, S-9, POLYCHLORINATED BIPHENYLS, Method: PREINCUBATION): inactive; negative | mutagenic call (Test System: AMES SALMONELLA TYPHIMURIUM, Strain/Indicator: TA97, Metabolic Activation: MOUSE, LIVER, S-9, POLYCHLORINATED BIPHENYLS, Method: STANDARD PLATE): inactive; negative | mutagenic call (Test System: AMES SALMONELLA TYPHIMURIUM, Strain/Indicator: TA97, Metabolic Activation: NONE, Method: STANDARD PLATE): active; positive | mutagenic call (Test System: AMES SALMONELLA TYPHIMURIUM, Strain/Indicator: TA98, Metabolic Activation: MOUSE, LIVER, S-9, POLYCHLORINATED BIPHENYLS, Method: PREINCUBATION): inactive; negative | mutagenic call (Test System: AMES SALMONELLA TYPHIMURIUM, Strain/Indicator: TA98, Metabolic Activation: MOUSE, LIVER, S-9, POLYCHLORINATED BIPHENYLS, Method: STANDARD PLATE): active; positive | mutagenic call [1]: active; positive | mutagenic call (Test System: AMES SALMONELLA TYPHIMURIUM, Strain/Indicator: TA100, Metabolic Activation: MOUSE, LIVER, S-9, POLYCHLORINATED BIPHENYLS, Method: PREINCUBATION): inactive; negative | mutagenic call (Test System: AMES SALMONELLA TYPHIMURIUM, Strain/Indicator: TA100, Metabolic Activation: MOUSE, LIVER, S-9, POLYCHLORINATED BIPHENYLS, Method: STANDARD PLATE): inactive; negative | mutagenic call [2]: inactive; negative | mutagenic call (Test System: AMES SALMONELLA TYPHIMURIUM, Strain/Indicator: TA1535, Metabolic Activation: MOUSE, LIVER, S-9, POLYCHLORINATED BIPHENYLS, Method: PREINCUBATION): inactive; negative | mutagenic call (Test System: AMES SALMONELLA TYPHIMURIUM, Strain/Indicator: TA1535, Metabolic Activation: MOUSE, LIVER, S-9, POLYCHLORINATED BIPHENYLS, Method: STANDARD PLATE): inactive; negative | mutagenic call (Test System: AMES SALMONELLA TYPHIMURIUM, Strain/Indicator: TA1535, Metabolic Activation: NONE, Method: STANDARD PLATE): inactive; negative | mutagenic call (Test System: AMES SALMONELLA TYPHIMURIUM, Strain/Indicator: TA1537, Metabolic Activation: MOUSE, LIVER, S-9, POLYCHLORINATED BIPHENYLS, Method: PREINCUBATION): active; positive | mutagenic call (Test System: AMES SALMONELLA TYPHIMURIUM, Strain/Indicator: TA1537, Metabolic Activation: MOUSE, LIVER, S-9, POLYCHLORINATED BIPHENYLS, Method: STANDARD PLATE): active; positive | mutagenic call (Test System: AMES SALMONELLA TYPHIMURIUM, Strain/Indicator: TA1537, Metabolic Activation: NONE, Method: STANDARD PLATE): active; positive | mutagenic call (Test System: AMES SALMONELLA TYPHIMURIUM, Strain/Indicator: TA1538, Metabolic Activation: MOUSE, LIVER, S-9, POLYCHLORINATED BIPHENYLS, Method: PREINCUBATION): active; positive | mutagenic call (Test System: AMES SALMONELLA TYPHIMURIUM, Strain/Indicator: TA1538, Metabolic Activation: MOUSE, LIVER, S-9, POLYCHLORINATED BIPHENYLS, Method: STANDARD PLATE): active; positive | mutagenic call (Test System: AMES SALMONELLA TYPHIMURIUM, Strain/Indicator: TA1538, Metabolic Activation: NONE, Method: STANDARD PLATE): active; positive

O=C1OC(O)C(Cl)=C1Cl (stereo unspecified)
mutagenic call [2]: active; positive | mutagenic call (Test System: UDS RAT HEPATOCYTES, Strain/Indicator: THYMIDINE INCORPORATION, Metabolic Activation: NONE, Method: AUTORADIOGRAPHY): active; positive

COc1c2occc2cc2ccc(=O)oc12
mutagenic call (Test System: AMES SALMONELLA TYPHIMURIUM, Strain/Indicator: TA92, Metabolic Activation: NONE, Method: SPOT TEST): inactive; negative | mutagenic call (Test System: AMES SALMONELLA TYPHIMURIUM, Strain/Indicator: TA92, Metabolic Activation: RAT, LIVER, S-9, AROCLOR 1254, Method: SPOT TEST): inactive; negative | mutagenic call (Test System: AMES SALMONELLA TYPHIMURIUM, Strain/Indicator: TA94, Metabolic Activation: NONE, Method: SPOT TEST): inactive; negative | mutagenic call (Test System: AMES SALMONELLA TYPHIMURIUM, Strain/Indicator: TA94, Metabolic Activation: RAT, LIVER, S-9, AROCLOR 1254, Method: SPOT TEST): inactive; negative | mutagenic call (Test System: AMES SALMONELLA TYPHIMURIUM, Strain/Indicator: TA97, Metabolic Activation: NONE, Method: SPOT TEST): inactive; negative | mutagenic call (Test System: AMES SALMONELLA TYPHIMURIUM, Strain/Indicator: TA97, Metabolic Activation: RAT, LIVER, S-9, AROCLOR 1254, Method: SPOT TEST): inactive; negative | mutagenic call (Test System: AMES SALMONELLA TYPHIMURIUM, Strain/Indicator: TA98, Metabolic Activation: HAMSTER, LIVER, S-9 (30%), AROCLOR 1254, Method: PREINCUBATION): inactive; negative | mutagenic call (Test System: AMES SALMONELLA TYPHIMURIUM, Strain/Indicator: TA98, Metabolic Activation: NONE, Method: PREINCUBATION): inactive; negative | mutagenic call (Test System: AMES SALMONELLA TYPHIMURIUM, Strain/Indicator: TA98, Metabolic Activation: NONE, Method: SPOT TEST): inactive; negative | mutagenic call [1]: inactive; negative | mutagenic call (Test System: AMES SALMONELLA TYPHIMURIUM, Strain/Indicator: TA98, Metabolic Activation: RAT, LIVER, S-9, AROCLOR 1254, Method: SPOT TEST): inactive; negative | mutagenic call (Test System: AMES SALMONELLA TYPHIMURIUM, Strain/Indicator: TA98, Metabolic Activation: RAT, LIVER, S-9, PHENOBARBITAL, Method: STANDARD PLATE): inactive; negative | mutagenic call (Test System: AMES SALMONELLA TYPHIMURIUM, Strain/Indicator: TA100, Metabolic Activation: HAMSTER, LIVER, S-9 (5%, 10% OR 30%), AROCLOR 1254, Method: PREINCUBATION): active; positive | mutagenic call (Test System: AMES SALMONELLA TYPHIMURIUM, Strain/Indicator: TA100, Metabolic Activation: NONE, Method: PREINCUBATION): inactive; negative | mutagenic call (Test System: AMES SALMONELLA TYPHIMURIUM, Strain/Indicator: TA100, Metabolic Activation: NONE, Method: SPOT TEST): inactive; negative | mutagenic call (Test System: AMES SALMONELLA TYPHIMURIUM, Strain/Indicator: TA100, Metabolic Activation: RAT, LIVER, S-9 (10%), AROCLOR 1254, Method: PREINCUBATION): inactive; negative | mutagenic call (Test System: AMES SALMONELLA TYPHIMURIUM, Strain/Indicator: TA100, Metabolic Activation: RAT, LIVER, S-9, AROCLOR 1254, Method: SPOT TEST): inactive; negative | mutagenic call (Test System: AMES SALMONELLA TYPHIMURIUM, Strain/Indicator: TA102, Metabolic Activation: HAMSTER, LIVER, S-9 (5%), AROCLOR 1254, Method: PREINCUBATION): active; positive | mutagenic call (Test System: AMES SALMONELLA TYPHIMURIUM, Strain/Indicator: TA102, Metabolic Activation: NONE, Method: PREINCUBATION): inactive; negative | mutagenic call (Test System: AMES SALMONELLA TYPHIMURIUM, Strain/Indicator: TA102, Metabolic Activation: NONE, Method: SPOT TEST): inactive; negative | mutagenic call (Test System: AMES SALMONELLA TYPHIMURIUM, Strain/Indicator: TA102, Metabolic Activation: RAT, LIVER, S-9 (5%), AROCLOR 1254, Method: PREINCUBATION): active; positive | mutagenic call (Test System: AMES SALMONELLA TYPHIMURIUM, Strain/Indicator: TA102, Metabolic Activation: RAT, LIVER, S-9, AROCLOR 1254, Method: SPOT TEST): inactive; negative | mutagenic call (Test System: AMES SALMONELLA TYPHIMURIUM, Strain/Indicator: TA104, Metabolic Activation: HAMSTER, LIVER, S-9 (30%), AROCLOR 1254, Method: PREINCUBATION): active; positive | mutagenic call (Test System: AMES SALMONELLA TYPHIMURIUM, Strain/Indicator: TA104, Metabolic Activation: RAT, LIVER, S-9 (5% OR 10%), AROCLOR 1254, Method: PREINCUBATION): active; positive | mutagenic call (Test System: AMES SALMONELLA TYPHIMURIUM, Strain/Indicator: TA104, Metabolic Activation: RAT, LIVER, S-9(30%), AROCLOR 1254, Method: PREINCUBATION): active; positive | mutagenic call (Test System: AMES SALMONELLA TYPHIMURIUM, Strain/Indicator: TA1535, Metabolic Activation: HAMSTER, LIVER, S-9 (30%), AROCLOR 1254, Method: PREINCUBATION): inactive; negative | mutagenic call (Test System: AMES SALMONELLA TYPHIMURIUM, Strain/Indicator: TA1535, Metabolic Activation: NONE, Method: PREINCUBATION): inactive; negative | mutagenic call (Test System: AMES SALMONELLA TYPHIMURIUM, Strain/Indicator: TA1535, Metabolic Activation: RAT, LIVER, S-9 (30%), AROCLOR 1254, Method: PREINCUBATION): inactive; negative
